According to patent US20050124562A1, “Bis-quinazoline compounds for the treatment of bacterial infections” (priority 2003, published 2005):
Converted amounts (≈) assume the structure as drawn.

What was measured:
[1] = test system: reconstituted bacterial DNA polymerase holoenzymes from E. coli, Y. pestis and S. pyogenes; type: biochemical
[2] = test system: S. aureus, E. faecalis, S. pyogenes and S. pneumoniae; assay: Broth microdilution MIC (NCCLS), gram-positive strains; type: cell-based
Method in brief: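 MICs by broth microdilution per NCCLS M-7 A-6 against ATCC strains, including ORSA and VRE; MBCs determined for selected organisms. Serum effect assessed by repeating MIC tests with human serum present.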

[3] = test system: clinically important gram-positive pathogens; assay: Whole cell antibacterial (MIC) and bactericidal (MBC) activity; type: cell-based
Protocol: (§1) Representative bis-quinazolines were tested for antibacterial activity using the […] microdilution method to determine their minimum inhibitory concentrations (MICs). All compounds were tested using standard methods in accordance with NCCLS guidelines (National Committee for Clinical Laboratory Standards. 2003. Methods for dilution antimicrobial susceptibility testing for bacteria that grow aerobically. Approved Standard M-7 A-6, NCCLS, Wayne, Pa.). The bacterial strains used in the susceptibility tests were obtained from the American Type Culture Collection (ATCC) and included resistant phenotypes such as oxacillin-resistant S. aureus (ORSA) and vancomycin-resistant enterococci (VRE). The minimum bactericidal concentrations (MBCs) were determined for selected organisms. The effect of protein binding on the antibacterial activity of representative bis-quinazolines were determined by conducting MIC tests in the presence of human serum.

[4] = test system: clinically important bacterial pathogens; assay: MIC tests in the presence of human serum; type: cell-based; details: 50% human serum
Protocol: as §1

[5] = Single dose toxicity study in the mouse; type: in vivo; details: single dose IP, 2.5 to 25 mg/kg, female Swiss-Webster mice, monitored one week
Protocol: A single dose toxicity study was conducted in the mouse prior to evaluating the compound for in vivo efficacy. 2-(6-Methoxy-4-methyl-quinazolin-2-ylamino)-3H-quinazolin-4-ol was prepared in a vehicle consisting of 10% DMSO, 10% ethanol and 80% saline that contained 3% β-cyclodextrin. The compound was administered as a single dose to the peritoneal cavity of female Swiss-Webster mice at the six concentrations (2.5, 5, 10, 15, 20 and 25 mg/kg) proposed for evaluation in the efficacy study. The mice were monitored for toxicity for one week following compound administration.

S. aureus ATCC 29213 = assay: S. aureus murine intra-abdominal sepsis model; type: in vivo, mice; details: 25 mg/kg IP one hour post infection, MLD of S. aureus IP
Protocol: Typically, the model involves inoculating the intra-peritoneal cavity of the mouse with the minimum lethal dose (MLD) of the test organism. The test antimicrobial agent can be administered by any route (e.g. intravenously, sub-cutaneously, oral, intraperitoneal). Early stage compounds are evaluated following intraperitoneal administration since this is considered to be relevant to systemic treatment since most of the compound will be absorbed into the bloodstream. The compound is then monitored for its ability to protect the mouse from a lethal infection with the test organism in a concentration-dependent manner. At the same time the model provides early data on the potential toxicity of a new compound.
The S. aureus murine intra-abdominal sepsis model was used to evaluate the in vivo efficacy of 2-(6-Methoxy-4-methyl-quinazolin-2-ylamino)-3H-quinazolin-4-ol. […] The animals were then monitored at frequent intervals and the numbers of mice surviving in the different treatment groups was scored and recorded in an attempt to determine the protective dose (PD50). Levofloxacin was evaluated as a positive control (0.875, 1.75, 3.125, 6.25, 12.5 and 25 mg/kg). Vehicle only and saline controls were also evaluated.

With `COc1ccc2nc(Nc3nc(O)c4ccccc4n3)nc(C)c2c1` [Example 9, 2-(6-Methoxy-4-methyl-quinazolin-2-ylamino)-quinazolin-4-ol] the “biochemical activity against reconstituted DNA polymerase holoenzymes” value [1] was “demonstrated biochemical activity”, the MIC [2] was 0.06 to 16 µg/mL (≈ 0.18 to 48 µM) and the “whole cell antibacterial and bactericidal activity” value [3] was “potent whole cell antibacterial and bactericidal activity”. For the same compound, the “antibacterial activity in the presence of human serum” value [4] was “activity is evident”, the “tolerability after single dose” value ([5]; listed as 2-(6-Methoxy-4-methyl-quinazolin-2-ylamino)-3H-quinazolin-4-ol) was “All mice tolerated the compound” and the “tolerability after single dose” value ([5]; listed as 2-(6-Methoxy-4-methyl-quinazolin-2-ylamino)-3H-quinazolin-4-one) was “well tolerated”. For the same compound, the “mice protected from lethal S. aureus infection” value (S. aureus ATCC 29213) was 50%.
